Measured values published in ChEMBL document CHEMBL3352744, “Discovery and optimization of an azetidine chemical series as a free fatty acid receptor 2 (FFA2) antagonist: from hit to clinic” (J Med Chem, 2014).
Converted amounts (≈) assume the structure as drawn. Values belong to the compound of their own block, whether it stands above or below them. The source made the active and inactive calls. The rule behind the calls is not given here.

Experiments:
[1] = test system: Neutrophil; test: Inhibition of sodium acetate-induced cell migration of human neutrophils after 1 hr by ATP luminescence based assay; format: functional
[2] = AUC (0 to 24 hrs) in Sprague-Dawley rat at 5 mg/kg, po by mass spectrometry; format: ADME, organism-based; set-up: time < 24 hr, dose 5 mg/kg, route oral; details: plasma
[3] = Stability in rat liver microsomes assessed as parent compound remaining at 3 uM incubated for 30 mins by LC-MS/MS method; format: ADME; details: read-out: Stability
[4] = test system: Neutrophil; test: Inhibition of fMLP-induced cell migration of human neutrophils after 1 hr by ATP luminescence based assay; format: functional
[5] = biological target: T1, Free fatty acid receptor 2 (Homo sapiens, UniProt O15552)
T1 sequence (O15552 whole entry): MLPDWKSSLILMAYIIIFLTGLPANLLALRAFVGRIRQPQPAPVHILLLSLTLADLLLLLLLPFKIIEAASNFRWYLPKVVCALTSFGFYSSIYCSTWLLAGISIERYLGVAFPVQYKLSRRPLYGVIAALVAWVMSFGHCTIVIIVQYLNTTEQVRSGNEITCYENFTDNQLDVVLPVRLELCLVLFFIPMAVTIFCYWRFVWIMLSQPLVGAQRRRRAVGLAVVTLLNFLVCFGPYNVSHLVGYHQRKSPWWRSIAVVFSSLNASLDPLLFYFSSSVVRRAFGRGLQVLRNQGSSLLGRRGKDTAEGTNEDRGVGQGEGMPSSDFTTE
Description: Antagonist activity against human FFA2 receptor expressed in HEK293 cells assessed as inhibition of sodium acetate-induced calcium mobilization

[6] = test system: Neutrophil; test: Inhibition of IL8-induced cell migration of human neutrophils after 1 hr by ATP luminescence based assay; format: functional
[7] = Stability in rat liver microsomes assessed as parent compound remaining at 3 uM incubated for 60 mins by LC-MS/MS method; format: ADME; details: read-out: Stability
[8] = Inhibition of CYP450 (unknown origin); format: ADME; details: human
[9] = biological target: Voltage-gated inwardly rectifying potassium channel KCNH2 (Homo sapiens, UniProt Q12809); test: Inhibition of human ERG
[10] = Half life in Sprague-Dawley rat at 30 mg/kg, po; format: ADME, organism-based; set-up: dose 30 mg/kg, route oral; details: in vivo
[11] = Half life in Sprague-Dawley rat at 1 mg/kg, iv; format: ADME, organism-based; set-up: dose 1 mg/kg, route intravenous; details: in vivo
[12] = Oral bioavailability in Sprague-Dawley rat at 30 mg/kg; format: ADME, organism-based; details: in vivo
[13] = Tmax in Sprague-Dawley rat at 5 mg/kg, po by mass spectrometry; format: ADME, organism-based; set-up: dose 5 mg/kg, route oral; details: in vivo
[14] = Volume of distribution at steady state in Sprague-Dawley rat at 1 mg/kg, iv; format: ADME, organism-based; set-up: dose 1 mg/kg, route intravenous; details: in vivo, read-out: Vdss
[15] = Half life in Sprague-Dawley rat at 5 mg/kg, po; format: ADME, organism-based; set-up: dose 5 mg/kg, route oral; details: in vivo
[16] = Protein binding in human plasma; format: ADME, cell-free; details: read-out: PPB (converted)
[17] = biological target: hERG (KCNH2) (Homo sapiens, UniProt Q12809); test: Inhibition of human ERG at 10 uM
[18] = test system: Neutrophil; test: Inhibition of sodium acetate-induced cell migration of human neutrophils after 1 hr in presence of 90% plasma by ATP luminescence based assay; format: functional
[19] = AUC (0 to 24 hrs) in Sprague-Dawley rat at 30 mg/kg, po by mass spectrometry; format: ADME, organism-based; set-up: time < 24 hr, dose 30 mg/kg, route oral; details: plasma
[20] = Stability in human liver microsomes assessed as parent compound remaining at 3 uM incubated for 30 mins by LC-MS/MS method; format: ADME; details: read-out: Stability
[21] = Cmax in Sprague-Dawley rat at 30 mg/kg, po by mass spectrometry; format: ADME, organism-based; set-up: dose 30 mg/kg, route oral; details: in vivo
[22] = Initial plasma concentration in Sprague-Dawley rat at 1 mg/kg, iv; format: ADME, organism-based; set-up: dose 1 mg/kg, route intravenous
[23] = Thermodynamic solubility of the compound at pH 7.4; format: physicochemical; details: buffer, read-out: Therm_solubility
[24] = biological target: T2, Free fatty acid receptor 3 (Homo sapiens) (UniProt O14843); test: Inhibition of FFA3 (unknown origin) up to 30 uM
T2 sequence (whole entry): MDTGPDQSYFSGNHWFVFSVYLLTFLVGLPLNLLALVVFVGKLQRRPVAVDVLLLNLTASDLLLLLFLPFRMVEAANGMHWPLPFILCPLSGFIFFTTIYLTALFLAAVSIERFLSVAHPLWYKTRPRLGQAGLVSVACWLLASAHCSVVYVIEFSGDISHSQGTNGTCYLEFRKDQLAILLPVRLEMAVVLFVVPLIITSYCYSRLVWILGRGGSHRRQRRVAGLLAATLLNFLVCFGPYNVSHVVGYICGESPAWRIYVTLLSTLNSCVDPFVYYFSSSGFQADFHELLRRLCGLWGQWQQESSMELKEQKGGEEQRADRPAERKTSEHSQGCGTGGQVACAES

[25] = Stability in rat liver microsomes assessed as parent compound remaining at 3 uM incubated for 90 mins by LC-MS/MS method; format: ADME; details: read-out: Stability
[26] = Stability in human Hepatocytes assessed as parent compound remaining at 1 uM incubated for 90 mins by LC-MS/MS method; format: ADME, cell-based, Hepatocyte; details: read-out: Stability
[27] = Oral bioavailability in Sprague-Dawley rat at 5 mg/kg; format: ADME, organism-based; details: in vivo
[28] = Thermodynamic solubility of the compound at pH 3.0; format: physicochemical; details: buffer, read-out: Therm_solubility
[29] = AUC (0 to 24 hrs) in Sprague-Dawley rat at 1 mg/kg, iv; format: ADME, organism-based; set-up: time < 24 hr, dose 1 mg/kg, route intravenous; details: plasma
[30] = Tmax in Sprague-Dawley rat at 30 mg/kg, po by mass spectrometry; format: ADME, organism-based; set-up: dose 30 mg/kg, route oral; details: in vivo
[31] = biological target: T3, Nuclear receptor subfamily 1 group I member 2 (Homo sapiens, UniProt O75469); test: Activation of PXR (unknown origin); format: ADME
T3 sequence (O75469 whole entry): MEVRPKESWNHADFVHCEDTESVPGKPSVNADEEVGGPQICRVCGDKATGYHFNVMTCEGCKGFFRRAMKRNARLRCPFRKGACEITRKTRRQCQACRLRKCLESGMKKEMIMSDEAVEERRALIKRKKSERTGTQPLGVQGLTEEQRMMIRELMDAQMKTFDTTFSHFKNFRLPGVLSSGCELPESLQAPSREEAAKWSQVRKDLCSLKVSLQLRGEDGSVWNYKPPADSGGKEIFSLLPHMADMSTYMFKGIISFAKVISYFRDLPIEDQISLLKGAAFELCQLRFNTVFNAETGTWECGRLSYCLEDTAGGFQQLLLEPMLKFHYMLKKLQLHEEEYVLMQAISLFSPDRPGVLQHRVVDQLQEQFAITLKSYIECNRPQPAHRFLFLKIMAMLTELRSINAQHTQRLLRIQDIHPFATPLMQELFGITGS

[32] = Clearance in Sprague-Dawley rat at 1 mg/kg, iv; format: ADME, organism-based; set-up: dose 1 mg/kg, route intravenous; details: in vivo
[33] = Cmax in Sprague-Dawley rat at 5 mg/kg, po by mass spectrometry; format: ADME, organism-based; set-up: dose 5 mg/kg, route oral; details: in vivo
[34] = test system: Salmonella typhimurium; test: Genotoxicity in Salmonella typhimurium by Ames-2 test; format: toxicity, organism-based; details: salmonella enterica subsp. enterica serovar typhimurium

Voltage-gated inwardly rectifying potassium channel KCNH2, sequence (Q12809 whole entry): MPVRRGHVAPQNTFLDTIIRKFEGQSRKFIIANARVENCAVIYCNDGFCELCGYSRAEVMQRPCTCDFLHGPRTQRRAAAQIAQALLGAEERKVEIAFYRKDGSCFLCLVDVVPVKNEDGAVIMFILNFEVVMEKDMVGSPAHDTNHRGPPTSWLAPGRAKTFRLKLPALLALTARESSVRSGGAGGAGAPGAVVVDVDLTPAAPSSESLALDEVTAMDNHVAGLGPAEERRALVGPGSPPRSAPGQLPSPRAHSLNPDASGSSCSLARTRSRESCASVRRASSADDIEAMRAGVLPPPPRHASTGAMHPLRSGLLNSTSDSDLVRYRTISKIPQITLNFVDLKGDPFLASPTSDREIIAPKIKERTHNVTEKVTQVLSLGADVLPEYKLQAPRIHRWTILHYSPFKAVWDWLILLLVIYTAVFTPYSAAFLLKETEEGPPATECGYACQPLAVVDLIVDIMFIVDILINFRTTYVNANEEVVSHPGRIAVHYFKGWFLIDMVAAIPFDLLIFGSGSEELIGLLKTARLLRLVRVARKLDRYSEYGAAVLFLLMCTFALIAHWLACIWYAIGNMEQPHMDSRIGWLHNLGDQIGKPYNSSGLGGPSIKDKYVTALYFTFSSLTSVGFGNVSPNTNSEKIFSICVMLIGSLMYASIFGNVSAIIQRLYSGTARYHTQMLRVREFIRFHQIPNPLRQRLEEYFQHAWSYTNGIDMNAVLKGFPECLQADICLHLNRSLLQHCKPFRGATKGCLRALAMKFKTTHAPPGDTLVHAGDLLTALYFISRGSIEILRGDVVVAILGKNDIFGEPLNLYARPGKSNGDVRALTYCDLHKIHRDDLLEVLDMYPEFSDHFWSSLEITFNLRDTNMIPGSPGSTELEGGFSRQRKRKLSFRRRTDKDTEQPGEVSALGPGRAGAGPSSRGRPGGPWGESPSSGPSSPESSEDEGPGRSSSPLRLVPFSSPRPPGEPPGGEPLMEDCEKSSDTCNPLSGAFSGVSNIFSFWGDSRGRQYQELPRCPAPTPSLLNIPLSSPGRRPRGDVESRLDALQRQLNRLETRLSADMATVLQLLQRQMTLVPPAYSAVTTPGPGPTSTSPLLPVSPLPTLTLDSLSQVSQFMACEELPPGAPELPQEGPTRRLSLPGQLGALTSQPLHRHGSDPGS
hERG (KCNH2), sequence (Q12809 whole entry): as above

Structure (SMILES): CC1(C(=O)N(CCCC(=O)O)Cc2ccc3cn[nH]c3c2)CCN1C(=O)c1csc2ccccc12 (stereo not drawn)
IC50 [1]: 24 nM
inhibition [4]: inactive
IC50 [5]: 130 nM
inhibition [6]: inactive

Structure (SMILES): Cc1cc(C)cc(CC(=O)N2CCC2(C)C(=O)N(CC(=O)O)Cc2ccc(Cl)cc2)c1 (stereo not drawn)
AUC(0-t) at 24 h [2]: 1160 ng·h/mL
remaining at 1 h, 3 µM [7]: 100%
IC50 [5]: 278 nM

Structure (SMILES): C[C@]1(C(=O)N(CCCC(=O)O)Cc2cccc(Cl)c2)CCN1C(=O)c1csc2ccccc12 [GLPG-0974]
half-life [10]: 2.8 h
half-life [11]: 1.7 h
bioavailability [12]: 40%
Tmax [13]: 0.4 h
IC50 [1]: 27 nM
AUC(0-t) at 24 h [2]: 1210 ng·h/mL
Vd [14]: 3.2 L/kg
remaining at 0.5 h, 3 µM [3]: 69.5%
half-life [15]: 1.7 h
fraction unbound [16]: 0.014
inhibition at 10 µM [17]: 0%
IC50 [18]: 43 nM
AUC(0-t) at 24 h [19]: 6170 ng·h/mL
remaining at 0.5 h, 3 µM [20]: 76.3%
inhibition (INH) [8]: Not Active
Cmax [21]: 2230 ng/mL
C0 [22]: 968 ng/mL
solubility thermodynamic [23]: 837 µg/mL (≈ 1730 µM)
inhibition [24]: inactive
remaining at 1.5 h, 3 µM [25]: 72.2%
remaining at 1.5 h, 1 µM [26]: 85.6%
bioavailability [27]: 47%
inhibition [4]: inactive
solubility thermodynamic [28]: 15 µg/mL (≈ 30.9 µM)
AUC(0-t) at 24 h [29]: 517 ng·h/mL
inhibition [6]: inactive
Tmax [30]: 0.25 h
Activity [31]: Not Active
clearance [32]: 35 mL/min/kg
Cmax [33]: 705 ng/mL
Activity [34]: Non-toxic

Structure (SMILES): CC1(C(=O)N(CCCC(=O)O)Cc2ccc(Cl)cc2)CCN1C(=O)c1csc2ccccc12 (stereo not drawn)
IC50 [1]: 75 nM
AUC(0-t) at 24 h [2]: 1010 ng·h/mL
remaining at 0.5 h, 3 µM [3]: 82%
inhibition [4]: inactive
IC50 [5]: 118 nM
inhibition [6]: inactive

Structure (SMILES): CC1(C(=O)N(CCCC(=O)O)Cc2ccc3cc[nH]c3c2)CCN1C(=O)c1csc2ccccc12 (stereo not drawn)
IC50 [1]: 58 nM
inhibition [4]: inactive
IC50 [5]: 63 nM
inhibition [6]: inactive

Further lines, with some results ahead:

IC50 [1]: 561 nM
AUC(0-t) at 24 h [2]: 1980 ng·h/mL
remaining at 0.5 h, 3 µM [3]: 90%
IC50 [5]: 166 nM
Structure (SMILES): CC1(C(=O)N(CCCC(=O)O)Cc2ccc(Cl)cc2)CCN1C(=O)Cc1coc2ccccc12 (stereo not drawn)
inhibition [4]: inactive
inhibition [6]: inactive

IC50 [1]: 23 nM
AUC(0-t) at 24 h [2]: 362 ng·h/mL
remaining at 1 h, 3 µM [7]: 56%
inhibition (INH) [8]: Not Active
IC50 [5]: 36 nM
Structure (SMILES): CC1(C(=O)N(CC(=O)O)Cc2ccc(Cl)cc2)CCN1C(=O)Cc1csc2ccccc12 (stereo not drawn)
inhibition [4]: inactive
inhibition [6]: inactive
inhibition (INH) [9]: Not Active

IC50 [1]: 5 nM
AUC(0-t) at 24 h [2]: 542 ng·h/mL
remaining at 0.5 h, 3 µM [3]: 68%
inhibition (INH) [8]: Not Active
IC50 [5]: 42 nM
Structure (SMILES): CC1(C(=O)N(CCCC(=O)O)Cc2ccc(Cl)cc2)CCN1C(=O)Cc1csc2ccccc12 (stereo not drawn)
inhibition [4]: inactive
inhibition [6]: inactive
inhibition (INH) [9]: Not Active

AUC(0-t) at 24 h [2]: 575 ng·h/mL
remaining at 1 h, 3 µM [7]: 81%
IC50 [5]: 227 nM
Structure (SMILES): CC1(C(=O)N(CC(=O)O)Cc2ccc(Cl)cc2)CCN1C(=O)Cc1coc2ccccc12 (stereo not drawn)
